# How the values were obtained:
# [1] = simplified steroidal aglycone; cited from earlier work
# [2] = In vivo efficacy of OSW-1
# [3] = Metabolic stability and pharmacokinetics, cleavage of ester groups in mouse blood; format: in vitro ADME
# [4] = tested on: dormant cancer cells; conditions: independent of cell cycle; cited from earlier work
# [5] = tested on: NCI 60 cell-line tumor panel; conditions: cited from earlier work
Compound,in vitro anticancer activity compared with compound 1 [1],in vivo efficacy [2],pharmacokinetics (PK) [3],"metabolic stability: cleavage of the two ester groups ([3]; enzymes in mouse blood, gives major metabolite 2)",concentration that effectively kills dormant cancer cells [4],IC50 ([5]; mean over NCI 60-cell in vitro screen),"anticancer activities, times more potent than many well-known anticancer drugs in clinical use ([5]; relative potency)"
COc1ccc(C(=O)OC2C(OC3C(O)COC(O[C@H]4C[C@@H]5[C@H](CC[C@H]6[C@H]5CC=C5C[C@@H](O)CC[C@@]56C)[C@H]4[C@H](C)CCCC(C)C)C3OC(C)=O)OCC(O)C2O)cc1 (stereo partly shown) [Compound 3],similar,,,,,,
COc1ccc(C(=O)O[C@H]2[C@H](O[C@@H]3[C@@H](OC(C)=O)[C@H](O[C@H]4C[C@H]5[C@@H]6CC=C7C[C@@H](O)CC[C@]7(C)[C@H]6CC[C@]5(C)[C@@]4(O)[C@H](C)C(=O)CCC(C)C)OC[C@@H]3O)OC[C@@H](O)[C@@H]2O)cc1 [OSW-1],,relatively weak,poor,quickly cleaved,sub-nM,0.78 nM,10-100 times

# Source: patent publication US20190153021A1, “THERAPEUTIC COMPOUNDS” (UNIVERSITY OF IOWA RESEARCH FOUNDATION, priority 2015, published 2019)
